# Measured values published in patent publication US20250122219A1 (priority 2023, published 2025).
# What was measured:
# HIV-1 (IIIB) = test: Antiviral assay in MT-4 cells; assay type: cell-based; conditions: Human immunodeficiency virus 1, MT4, 120 h; HIV-1 IIIB in MT-4 cells, 5 days incubation, Cell Titer Glo; read-out: MT4 EC50
# Procedure, shortened: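 HIV-1 IIIB-infected MT-4 cells (fresh 1:250 virus stock dilution; mock-infected controls) incubated 5 days at 37 °C with serially diluted compounds in RPMI/10% FBS; 5 μM AZT as positive control. Cell viability read by CellTiter-Glo luminescence as measure of protection from viral replication.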
# [1] = Cytotoxicity assay in MT-4 cells; assay type: cell-based; conditions: human; uninfected MT-4 cells, 5 days incubation, Cell Titer Glo; read-out: MT4 CC50
# Procedure, shortened: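 Uninfected MT-4 cells exposed to serially diluted compounds in RPMI with 10% FBS for 5 days at 37 °C. Viability by Cell Titer Glo chemiluminescence. Puromycin […] as baseline cytotoxicity control.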
Structure (SMILES),EC50 (HIV-1 (IIIB)),CC50 at 5 days [1]
"CCCCCOC(=O)OCOc1c2n(cc(C(=O)NCc3ccc(F)cc3F)c1=O)[C@@H]1CN(C2=O)[C@@H](C)CC[C@]12CC(C)=NO2 [Example 179, (((3′S,5S,7′R)-10′-((2,4-difluorobenzyl)carbamoyl)-3,3′-dimethyl-1′,11′-dioxo-1′,4′,5′,11′-tetrahydro-3′H,4H,7′H-spiro[isoxazole-5,6′-[2,7]methanopyrido[1,2-a][1,4]diazonin]-12′-yl)oxy)methyl pentyl carbonate]",0.527 nM,≥ 50000 nM
"CC1=NO[C@@]2(CC[C@H](C)N3C[C@H]2n2cc(C(=O)NCc4ccc(F)cc4F)c(=O)c(OCOC(=O)C(C)(C)C)c2C3=O)C1 [Example 18, (((3′S,5S,7′R)-10′-((2,4-difluorobenzyl)carbamoyl)-3,3′-dimethyl-1′,11′-dioxo-1′,4′,5′,11′-tetrahydro-3′H,4H,7′H-spiro[isoxazole-5,6′-[2,7]methanopyrido[1,2-a][1,4]diazonin]-12′-yl)oxy)methyl pivalate]",2.76 nM,20100 nM
"CCCCCCCCCCCC(=O)OCOc1c2n(cc(C(=O)NCc3ccc(F)cc3F)c1=O)[C@@H]1CN(C2=O)[C@@H](C)CC[C@]12CC(C)=NO2 [Example 102, (((3′S,5S,7′R)-10′-((2,4-difluorobenzyl)carbamoyl)-3,3′-dimethyl-1′,11′-dioxo-1′,4′,5′,11′-tetrahydro-3′H,4H,7′H-spiro[isoxazole-5,6′-[2,7]methanopyrido[1,2-a][1,4]diazonin]-12′-yl)oxy)methyl dodecanoate]",4.96 nM,≥ 50000 nM

# The next lines start with results.
EC50 (HIV-1 (IIIB)),Structure (SMILES),CC50 at 5 days [1]
0.246 nM,"CCCCCCCCCC(=O)OCOc1c2n(cc(C(=O)NCc3ccc(F)cc3F)c1=O)[C@@H]1CN(C2=O)[C@@H](C)CC[C@]12CC(C)=NO2 [Example 100, (((3′S,5S,7′R)-10′-((2,4-difluorobenzyl)carbamoyl)-3,3′-dimethyl-1′,11′-dioxo-1′,4′,5′,11′-tetrahydro-3′H,4H,7′H-spiro[isoxazole-5,6′-[2,7]methanopyrido[1,2-a][1,4]diazonin]-12′-yl)oxy)methyl decanoate]",≥ 50000 nM
4.17 nM,"COC1=NO[C@@]2(CC[C@H](C)N3C[C@H]2n2cc(C(=O)NCc4ccc(F)cc4F)c(=O)c(OCOC(=O)CCCCCC(C)C)c2C3=O)C1 [Example 116, (((3′S,5S,7′R)-10′-((2,4-difluorobenzyl)carbamoyl)-3-methoxy-3′-methyl-1′,11′-dioxo-1′,4′,5′,11′-tetrahydro-3′H,4H,7′H-spiro[isoxazole-5,6′-[2,7]methanopyrido[1,2-a][1,4]diazonin]-12′-yl)oxy)methyl 7-methyloctanoate]",27200 nM
0.316 nM,"COC1=NO[C@@]2(CC[C@H](C)N3C[C@H]2n2cc(C(=O)NCc4ccc(F)cc4F)c(=O)c(OC(=O)CCCCCCC(C)C)c2C3=O)C1 [Example 66, (3′S,5S,7′R)-10′-((2,4-difluorobenzyl)carbamoyl)-3-methoxy-3′-methyl-1′,11′-dioxo-1′,4′,5′,11′-tetrahydro-3′H,4H,7′H-spiro[isoxazole-5,6′-[2,7]methanopyrido[1,2-a][1,4]diazonin]-12′-yl 8-methylnonanoate]",22300 nM
3.25 nM,"CCCCCCCCCOC(=O)OCOc1c2n(cc(C(=O)NCc3ccc(F)cc3F)c1=O)[C@@H]1CN(C2=O)[C@@H](C)CC[C@]12CC(OC)=NO2 [Example 187, (((3′S,5S,7′R)-10′-((2,4-difluorobenzyl)carbamoyl)-3-methoxy-3′-methyl-1′,11′-dioxo-1′,4′,5′,11′-tetrahydro-3′H,4H,7′H-spiro[isoxazole-5,6′-[2,7]methanopyrido[1,2-a][1,4]diazonin]-12′-yl)oxy)methyl nonyl carbonate]",43900 nM
